Measurements as given in patent US12083101B2, “Biaryl derivatives as YAP/TAZ-TEAD protein-protein interaction inhibitors” (Novartis AG, priority 2020, dated 2024).

Target: Avi-humanTEAD4 217-434 / Cy5 labeled humanYAP 60-100 (Homo sapiens (Human), UniProt Q15561)
Test: TR-FRET YAP-TEAD4 in-vitro biochemical assay
Format: binding
Conditions: 1 nM Avi-humanTEAD4 217-434, 20 nM Cy5-humanYAP 60-100, 1 h room temperature
Description: N-terminus Cy5 labeled humanYAP^60-100 (20 nM) was then added to this preparation. Compounds were dissolved at 10 mM in 100% DMSO and serial dilutions were made in 100% DMSO. The diluted compound solutions were incubated in white 384-well plates (Greiner Bio-One) for 1 h at room temperature with the above described mix. The final DMSO concentration present in the assay was 1%. […] The IC50 values were estimated by fitting the data by nonlinear fit regression (GraphPad Prism).

Avi-humanTEAD4 217-434 / Cy5 labeled humanYAP 60-100, sequence (Q15561 217-434): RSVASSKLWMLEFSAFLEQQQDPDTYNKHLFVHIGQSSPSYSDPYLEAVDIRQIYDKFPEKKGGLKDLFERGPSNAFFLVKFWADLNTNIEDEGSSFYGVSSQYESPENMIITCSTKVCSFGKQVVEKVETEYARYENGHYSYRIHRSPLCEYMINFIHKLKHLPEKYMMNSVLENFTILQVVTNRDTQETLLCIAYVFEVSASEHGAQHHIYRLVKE

| IC50 [nM] | SMILES |
| --- | --- |
| 9 | COc1ccc(C(N)=O)c(-c2c(Cl)ccc3c2[C@H](O)[C@@](CN)(c2ccccc2OC(F)(F)F)O3)c1F (atropisomer, axis not shown) [Example 93, 2-((2S,3S,4S)-2-(Aminomethyl)-5-chloro-3-hydroxy-2-(2-(trifluoromethoxy)phenyl)-2,3-dihydrobenzofuran-4-yl)-3-fluoro-4-methoxybenzamide] |
| 5 | NC[C@]1(c2ccccc2)Oc2cc(F)c(Cl)c(-c3c(C(N)=O)ccc(OCCO)c3F)c2[C@@H]1O (atropisomer, axis not shown) [Example 98, 2-((2S,3S,4S)-2-(Aminomethyl)-5-chloro-6-fluoro-3-hydroxy-2-phenyl-2,3-dihydrobenzofuran-4-yl)-3-fluoro-4-(2-hydroxyethoxy)benzamide] |
| 2 | C[C@H]1c2c(cc(F)c(Cl)c2-c2c(C(N)=O)ccc(OC(F)F)c2F)O[C@]1(CN)c1ccccc1 (atropisomer, axis not shown) [Example 105, 2-((2S,3S,4S)-2-(Aminomethyl)-5-chloro-6-fluoro-3-methyl-2-phenyl-2,3-dihydrobenzofuran-4-yl)-4-(difluoromethoxy)-3-fluorobenzamide] |
| 2 | C[C@H]1c2c(cc(F)c(Cl)c2-c2c(C(N)=O)ccc(OCCO)c2F)O[C@]1(CN)c1ccccc1 (atropisomer, axis not shown) [Example 107, 2-((2S,3S,4S)-2-(aminomethyl)-5-chloro-6-fluoro-3-methyl-2-phenyl-2,3-dihydrobenzofuran-4-yl)-3-fluoro-4-(2-hydroxyethoxy)benzamide] |
| 2 | COCCOc1ncc(C(N)=O)c(-c2c(Cl)c(F)cc3c2[C@H](C)[C@@](CN)(c2ccccc2)O3)c1F (atropisomer, axis not shown) [Example 108, 4-((2S,3S,4S)-2-(aminomethyl)-5-chloro-6-fluoro-3-methyl-2-phenyl-2,3-dihydrobenzofuran-4-yl)-5-fluoro-6-(2-methoxyethoxy)nicotinamide] |
| 4 | CNC[C@]1(c2ccccn2)Oc2cc(F)c(Cl)c(-c3c(C(N)=O)ccc(OCCOC)c3F)c2[C@@H]1C (atropisomer, axis not shown) [Example 111, 2-((2R,3S,4S)-5-chloro-6-fluoro-3-methyl-2-((methylamino)methyl)-2-(pyridin-2-yl)-2,3-dihydrobenzofuran-4-yl)-3-fluoro-4-(2-methoxyethoxy)benzamide] |
| 1 | CNC[C@]1(c2ccccn2)Oc2cc(F)c(Cl)c(-c3c(C(N)=O)ccc(OCCO)c3F)c2[C@@H]1C (atropisomer, axis not shown) [Example 112, 2-((2R,3S,4S)-5-chloro-6-fluoro-3-methyl-2-((methylamino)methyl)-2-(pyridin-2-yl)-2,3-dihydrobenzofuran-4-yl)-3-fluoro-4-(2-hydroxyethoxy)benzamide] |
| 2 | C[C@H]1c2c(cc(F)c(Cl)c2-c2c(C(N)=O)ccc(OC(F)F)c2F)O[C@]1(CN[C@H]1CC[C@H](O)CC1)c1ccccc1 (atropisomer, axis not shown) [Example 115a, 2-((2S,3S,4S)-5-chloro-6-fluoro-2-((((trans)-4-hydroxycyclohexyl)amino)methyl)-3-methyl-2-phenyl-2,3-dihydrobenzofuran-4-yl)-4-(difluoromethoxy)-3-fluorobenzamide] |
| 2 | C[C@H]1c2c(cc(F)c(Cl)c2-c2c(C(N)=O)ccc(OC(F)F)c2F)O[C@]1(CN[C@H]1CC[C@@H](O)CC1)c1ccccc1 (atropisomer, axis not shown) [Example 115b, 2-((2S,3S,4S)-5-chloro-6-fluoro-2-((((cis)-4-hydroxycyclohexyl)amino)methyl)-3-methyl-2-phenyl-2,3-dihydrobenzofuran-4-yl)-4-(difluoromethoxy)-3-fluorobenzamide] |
| < 1 | COCCOc1ccc(C(N)=O)c(-c2c(Cl)c(F)cc3c2[C@H](C)[C@@](CN[C@H]2CC[C@](C)(O)CC2)(c2ccccc2)O3)c1F (atropisomer, axis not shown) [Example 116a, 2-((25,35,4S)-5-chioro-6-fluoro-2-((((trans)-4-hydroxy-4-methylcyclohexyl)amino)methyl)-3-methyl-2-phenyl-2,3-dihydrobenzofuran-4-yl)-3-fluoro-4-(2-methoxyethoxy)benzamide] |
| 1 | COCCOc1ccc(C(N)=O)c(-c2c(Cl)c(F)cc3c2[C@H](C)[C@@](CN[C@H]2CC[C@@](C)(O)CC2)(c2ccccc2)O3)c1F (atropisomer, axis not shown) [Example 116b, 2-((2S,3S,4S)-5-chloro-6-fluoro-2-((((cis)-4-hydroxy-4-methylcyclohexyl)amino)methyl)-3-methyl-2-phenyl-2,3-dihydrobenzofuran-4-yl)-3-fluoro-4-(2-methoxyethoxy)benzamide] |
| 1290 | NC[C@@]1(c2ccccc2)Cc2c(ncc(Cl)c2-c2c(F)cccc2C(N)=O)O1 (atropisomer, axis not shown) [Example 131, 2-((2S,4S)-2-(Aminomethyl)-5-chloro-2-phenyl-2,3-dihydrofuro[2,3-b]pyridin-4-yl)-3-fluorobenzamide] |
| 8 | COc1ccc(C(N)=O)c(-c2c(Cl)ccc3c2[C@H](O)[C@@](CN[C@H]2CC[C@H](O)CC2)(c2ccccn2)O3)c1F (relative stereo) [Example 95a, 2-((2R,3S,4S)-5-Chloro-3-hydroxy-2-((((trans)-4-hydroxycyclohexyl)amino)methyl)-2-(pyridin-2-yl)-2,3-dihydrobenzofuran-4-yl)-3-fluoro-4-methoxybenzamide] |
| 7 | COc1ccc(C(N)=O)c(-c2c(Cl)ccc3c2[C@H](O)[C@@](CN[C@H]2CC[C@@H](O)CC2)(c2ccccn2)O3)c1F (relative stereo) [Example 95b, 2-((2R,3S,4S)-5-chloro-3-hydroxy-2-((((cis)-4-hydroxycyclohexyl)amino)methyl)-2-(pyridin-2-yl)-2,3-dihydrobenzofuran-4-yl)-3-fluoro-4-methoxybenzamide] |
| 2 | NC(=O)c1ccc(OC(F)F)c(F)c1-c1c(Cl)c(F)cc2c1[C@H](O)[C@@](CN[C@H]1CC[C@H](O)CC1)(c1ccccc1)O2 (relative stereo) [Example 100a, 2-((2S,3S,4S)-5-Chloro-6-fluoro-3-hydroxy-2-((((trans)-4-hydroxycyclohexyl)amino)methyl)-2-phenyl-2,3-dihydrobenzofuran-4-yl)-4-(difluoromethoxy)-3-fluorobenzamide] |
| 5 | NC(=O)c1ccc(OC(F)F)c(F)c1-c1c(Cl)c(F)cc2c1[C@H](O)[C@@](CN[C@H]1CC[C@@H](O)CC1)(c1ccccc1)O2 (relative stereo) [Example 100b, 2-((2S,3S,4S)-5-chloro-6-fluoro-3-hydroxy-2-((((cis)-4-hydroxycyclohexyl)amino)methyl)-2-phenyl-2,3-dihydrobenzofuran-4-yl)-4-(difluoromethoxy)-3-fluorobenzamide] |
| 3 | CO[C@H]1c2c(cc(F)c(Cl)c2-c2c(C(N)=O)ccc(OC(F)F)c2F)O[C@]1(CN[C@H]1CC[C@H](O)CC1)c1ccccc1 (relative stereo) [Example 102a, 2-((2S,3S,4S)-5-Chloro-6-fluoro-2-((((trans)-4-hydroxycyclohexyl)amino)methyl)-3-methoxy-2-phenyl-2,3-dihydrobenzofuran-4-yl)-4-(difluoromethoxy)-3-fluorobenzamide] |
| 4 | CO[C@H]1c2c(cc(F)c(Cl)c2-c2c(C(N)=O)ccc(OC(F)F)c2F)O[C@]1(CN[C@H]1CC[C@@H](O)CC1)c1ccccc1 (relative stereo) [Example 102b, 2-((2S,3S,4S)-5-chloro-6-fluoro-2-((((cis)-4-hydroxycyclohexyl)amino)methyl)-3-methoxy-2-phenyl-2,3-dihydrobenzofuran-4-yl)-4-(difluoromethoxy)-3-fluorobenzamide] |
| 7 | CO[C@H]1CC[C@@H](NC[C@]2(c3ccccc3)Oc3cc(F)c(Cl)c(-c4c(C(N)=O)ccc(OC(F)F)c4F)c3[C@@H]2O)CC1 (relative stereo) [Example 136a, 2-((2S,3S,4S)-5-Chloro-6-fluoro-3-hydroxy-2-((((cis)-4-methoxycyclohexyl)amino)methyl)-2-phenyl-2,3-dihydrobenzofuran-4-yl)-4-(difluoromethoxy)-3-fluorobenzamide] |
| 7 | CO[C@H]1CC[C@H](NC[C@]2(c3ccccc3)Oc3cc(F)c(Cl)c(-c4c(C(N)=O)ccc(OC(F)F)c4F)c3[C@@H]2O)CC1 (relative stereo) [Example 136b, 2-((2S,3S,4S)-5-chloro-6-fluoro-3-hydroxy-2-((((trans)-4-methoxycyclohexyl)amino)methyl)-2-phenyl-2,3-dihydrobenzofuran-4-yl)-4-(difluoromethoxy)-3-fluorobenzamide] |
| 5 | COC(=O)[C@H]1CC[C@@H](NC[C@@]2(c3ccccc3)Cc3c(ccc(Cl)c3-c3c(C(N)=O)ccc(F)c3F)O2)CC1 (relative stereo) [Example 137a, Methyl (cis)-4-((((2S,4S)-4-(6-carbamoyl-2,3-difluorophenyl)-5-chloro-2-phenyl-2,3-dihydrobenzofuran-2-yl)methyl)amino)cyclohexane-1-carboxylate] |
| 6 | COC(=O)[C@H]1CC[C@H](NC[C@@]2(c3ccccc3)Cc3c(ccc(Cl)c3-c3c(C(N)=O)ccc(F)c3F)O2)CC1 (relative stereo) [Example 137b, methyl (trans)-4-((((2S,4S)-4-(6-carbamoyl-2,3-difluorophenyl)-5-chloro-2-phenyl-2,3-dihydrobenzofuran-2-yl)methyl)amino)cyclohexane-1-carboxylate] |
